{
  "source": "paper PMC10643210",
  "about": "“Expanding structural diversity of 5′-aminouridine moiety of sansanmycin via mutational biosynthesis” (Frontiers in Bioengineering and Biotechnology, 2023)",
  "key": {"M. tuberculosis M6600": {"system": "M. tuberculosis M6600", "conditions": "clinical multidrug-resistant isolate; for MIC M. tuberculosis M6600: Alamar blue, 7H9 broth, triplicate wells"}, "M. tuberculosis M3551": {"system": "M. tuberculosis M3551", "conditions": "clinical multidrug-resistant isolate; for MIC M. tuberculosis M3551: Alamar blue, 7H9 broth, triplicate wells"}, "M. tuberculosis M9483": {"system": "M. tuberculosis M9483", "conditions": "clinical multidrug-resistant isolate; for MIC M. tuberculosis M9483: Alamar blue, 7H9 broth, triplicate wells"}},
  "data": [
    {"compound": "CSCC[C@H](NC(=O)N[C@@H](Cc1c[nH]c2ccccc12)C(=O)O)C(=O)N[C@H](C(=O)NC[C@H]1O[C@@H](n2ccc(=O)[nH]c2=O)C[C@@H]1O)[C@H](C)N(C)C(=O)[C@@H](N)Cc1cccc(O)c1", "note": "[SS-KK-1]", "values": [
      {"measurement": "MIC M. tuberculosis M6600", "setting": "M. tuberculosis M6600", "value": ">64", "unit": "µg/mL"},
      {"measurement": "MIC M. tuberculosis M3551", "setting": "M. tuberculosis M3551", "value": ">64", "unit": "µg/mL"},
      {"measurement": "MIC M. tuberculosis M9483", "setting": "M. tuberculosis M9483", "value": ">64", "unit": "µg/mL"}
    ]},
    {"compound": "CC(=O)NC[C@H]1CN(c2ccc(N3CCOCC3)c(F)c2)C(=O)O1", "note": "[LZD, linezolid]", "values": [
      {"measurement": "M. tuberculosis M6600, resistant/sensitive class of control drugs", "setting": "M. tuberculosis M6600", "value": "S (sensitive to LZD, at 2.0 μg/mL)"},
      {"measurement": "M. tuberculosis M3551, resistant/sensitive class of control drugs", "setting": "M. tuberculosis M3551", "value": "S (sensitive to LZD, at 2.0 μg/mL)"},
      {"measurement": "M. tuberculosis M9483, resistant/sensitive class of control drugs", "setting": "M. tuberculosis M9483", "value": "S (sensitive to LZD, at 2.0 μg/mL)"}
    ]},
    {"compound": "CO[C@H]1/C=C/O[C@@]2(C)Oc3c(C)c(O)c4c(O)c(c(/C=N/N5CCN(C)CC5)c(O)c4c3C2=O)NC(=O)/C(C)=C\\C=C\\[C@H](C)[C@H](O)[C@@H](C)[C@@H](O)[C@@H](C)[C@H](OC(C)=O)[C@@H]1C", "note": "[RIF, rifampicin]", "values": [
      {"measurement": "M. tuberculosis M6600, resistant/sensitive class of control drugs", "setting": "M. tuberculosis M6600", "value": "R"},
      {"measurement": "M. tuberculosis M3551, resistant/sensitive class of control drugs", "setting": "M. tuberculosis M3551", "value": "R"},
      {"measurement": "M. tuberculosis M9483, resistant/sensitive class of control drugs", "setting": "M. tuberculosis M9483", "value": "R"}
    ]},
    {"compound": "CSCC[C@H](NC(=O)N[C@@H](Cc1c[nH]c2ccccc12)C(=O)O)C(=O)N[C@H](C(=O)N/C=C1/C[C@@H](O)[C@H](n2ccc(=O)[nH]c2=O)O1)[C@H](C)N(C)C(=O)[C@@H](N)Cc1cccc(O)c1", "note": "[SS-A, sansanmycin A]", "values": [
      {"measurement": "MIC M. tuberculosis M6600", "setting": "M. tuberculosis M6600", "value": 16, "unit": "µg/mL"},
      {"measurement": "MIC M. tuberculosis M3551", "setting": "M. tuberculosis M3551", "value": 16, "unit": "µg/mL"},
      {"measurement": "MIC M. tuberculosis M9483", "setting": "M. tuberculosis M9483", "value": 16, "unit": "µg/mL"}
    ]},
    {"compound": "NNC(=O)c1ccncc1", "note": "[INH, isoniazid]", "values": [
      {"measurement": "M. tuberculosis M6600, resistant/sensitive class of control drugs", "setting": "M. tuberculosis M6600", "value": "R"},
      {"measurement": "M. tuberculosis M3551, resistant/sensitive class of control drugs", "setting": "M. tuberculosis M3551", "value": "R"},
      {"measurement": "M. tuberculosis M9483, resistant/sensitive class of control drugs", "setting": "M. tuberculosis M9483", "value": "R"}
    ]},
    {"compound": "CSCC[C@H](NC(=O)N[C@@H](Cc1c[nH]c2ccccc12)C(=O)O)C(=O)N[C@H](C(=O)NC[C@H]1O[C@@H](n2ccc(=O)[nH]c2=O)C[C@@H]1O)[C@H](C)N(C)C(=O)[C@@H](N)Cc1ccc(O)cc1", "note": "[SS-KK-2]", "values": [
      {"measurement": "MIC M. tuberculosis M6600", "setting": "M. tuberculosis M6600", "value": 64, "unit": "µg/mL"},
      {"measurement": "MIC M. tuberculosis M3551", "setting": "M. tuberculosis M3551", "value": 64, "unit": "µg/mL"},
      {"measurement": "MIC M. tuberculosis M9483", "setting": "M. tuberculosis M9483", "value": 32, "unit": "µg/mL"}
    ]}
  ]
}
